Assay: Migraine open-label pilot study: side effects (AEs present) at each time point
Assay type: in vivo, human
Description: The majority of the patients remained in the clinic for observation for 2 hours after dosing. […] Headache pain was assessed on a 4-point scale (0=none; 1=mild; 2=moderate; 3=severe). The assessment of photophobia, phonophobia, nausea, and neck/shoulder pain was assessed as present or absent. The assessment of emotional pain was recorded on a 4-point scale (0=none, 1=mild, 2=moderate, 3=severe). The assessment of difficulty sleeping or falling asleep (insomnia) was assessed on a 4-point scale (0=none, 1=mild, 2=moderate, 3=severe) at baseline, for the night before treatment and for the following nights at 24, and 48 hours. Patients recorded side effects severity at each time point. Patients recorded the time of the first rescue medication dose and all additional headache medications used within 48 hours. Patients were required to stay awake to record their assessments in the first 2 hours, sleeping was permitted thereafter. While asleep, assessments were completed according to patients' best estimation. For data analysis, it was assumed that a migraine attack is a unique patient. Patients were asked to specify (yes or no answer) to whether they experienced emotional pain symptoms such as: hurt feelings, sadness, fear, or anger. Patients who replied positively to having emotional pain were asked to specify the cause into one of the following options: relationship, work/school, money/debt, health, or loss/grief.

Q: Which results are given for `O=C1CC[C@@]2(O)[C@H]3Cc4ccc(O)c5c4[C@@]2(CCN3CC2CC2)[C@H]1O5` [naltrexone]?
A: AEs present (7 min, NTX/APAP 2.25 mg/325 mg, NTX 2.25 mg): 0 (0); AEs present (7 min, NTX/APAP 3.25 mg/325 mg, NTX 3.25 mg): 0; AEs present (7 min, NTX/APAP 5 mg/325 mg, NTX 5 mg): 1; AEs present (7 min, all doses combined): 1 (16); AEs present (15 min, NTX/APAP 2.25 mg/325 mg, NTX 2.25 mg): 1 (11); AEs present (15 min, NTX/APAP 3.25 mg/325 mg, NTX 3.25 mg): 0; AEs present (15 min, NTX/APAP 5 mg/325 mg, NTX 5 mg): 0; AEs present (15 min, NTX/APAP […]325 mg, NTX 1.5 mg): 0; AEs present (15 min, all doses combined): 2 (13); AEs present (30 min, NTX/APAP 2.25 mg/325 mg, NTX 2.25 mg): 1 (11); AEs present (30 min, NTX/APAP 3.25 mg/325 mg, NTX 3.25 mg): 2 (66); AEs present (30 min, NTX/APAP 5 mg/325 mg, NTX 5 mg): 1 (100); AEs present (30 min, NTX/APAP […]325 mg, NTX 1.5 mg): 0 (0); AEs present (30 min, all doses combined): 4 (25); AEs present (1 h, NTX/APAP 2.25 mg/325 mg, NTX 2.25 mg): 1 (11); AEs present (1 h, NTX/APAP 3.25 mg/325 mg, NTX 3.25 mg): 1; AEs present (1 h, NTX/APAP 5 mg/325 mg, NTX 5 mg): 1; AEs present (1 h, NTX/APAP […]325 mg, NTX 1.5 mg): 0; AEs present (1 h, all doses combined): 3 (19); AEs present (90 min, NTX/APAP 2.25 mg/325 mg, NTX 2.25 mg): 0 (0); AEs present (90 min, NTX/APAP 3.25 mg/325 mg, NTX 3.25 mg): 1 (33); AEs present (90 min, NTX/APAP 5 mg/325 mg, NTX 5 mg): 1 (100); AEs present (90 min, NTX/APAP […]325 mg, NTX 1.5 mg): 0 (0); AEs present (90 min, all doses combined): 2 (13); AEs present (2 h, NTX/APAP 2.25 mg/325 mg, NTX 2.25 mg): 0 (0); AEs present (2 h, NTX/APAP 3.25 mg/325 mg, NTX 3.25 mg): 1 (33); AEs present (2 h, NTX/APAP 5 mg/325 mg, NTX 5 mg): 1; AEs present (2 h, NTX/APAP […]325 mg, NTX 1.5 mg): 0 (0); AEs present (2 h, combined doses): 2 (13); AEs present (3 h, NTX/APAP 2.25 mg/325 mg, NTX 2.25 mg): 0 (0); AEs present (3 h, NTX/APAP 3.25 mg/325 mg, NTX 3.25 mg): 1 (33); AEs present (3 h, NTX/APAP 5 mg/325 mg, NTX 5 mg): 1; AEs present (3 h, NTX/APAP […]325 mg, NTX 1.5 mg): 0; AEs present (3 h, combined doses): 2 (13); AEs present (4 h, NTX/APAP 2.25 mg/325 mg, NTX 2.25 mg): 0 (0); AEs present (4 h, NTX/APAP 3.25 mg/325 mg, NTX 3.25 mg): 1 (33); AEs present (4 h, NTX/APAP 5 mg/325 mg, NTX 5 mg): 1; AEs present (4 h, NTX/APAP […]325 mg, NTX 1.5 mg): 0; AEs present (4 h, combined doses): 2 (13); AEs present (6 h, NTX/APAP 2.25 mg/325 mg, NTX 2.25 mg): 0 (0); AEs present (6 h, NTX/APAP 3.25 mg/325 mg, NTX 3.25 mg): 1 (33); AEs present (6 h, NTX/APAP 5 mg/325 mg, NTX 5 mg): 1; AEs present (6 h, NTX/APAP […]325 mg, NTX 1.5 mg): 0; AEs present (6 h, combined doses): 2 (13); AEs present (12 h, NTX/APAP 2.25 mg/325 mg, NTX 2.25 mg): 0 (0); AEs present (12 h, NTX/APAP 3.25 mg/325 mg, NTX 3.25 mg): 1 (33); AEs present (12 h, NTX/APAP 5 mg/325 mg, NTX 5 mg): 1; AEs present (12 h, NTX/APAP […]325 mg, NTX 1.5 mg): 0; AEs present (12 h, combined doses): 2 (13); AEs present (24 h, NTX/APAP 2.25 mg/325 mg, NTX 2.25 mg): 0; AEs present (24 h, NTX/APAP 3.25 mg/325 mg, NTX 3.25 mg): 1 (33); AEs present (24 h, NTX/APAP 5 mg/325 mg, NTX 5 mg): 1; AEs present (24 h, NTX/APAP […]325 mg, NTX 1.5 mg): 0; AEs present (24 h, combined doses): 2 (13); AEs present (48 h, NTX/APAP 2.25 mg/325 mg, NTX 2.25 mg): 0 (0); AEs present (48 h, NTX/APAP 3.25 mg/325 mg, NTX 3.25 mg): 1 (33); AEs present (48 h, NTX/APAP 5 mg/325 mg, NTX 5 mg): 0; AEs present (48 h, NTX/APAP […]325 mg, NTX 1.5 mg): 0; AEs present (48 h, combined doses): 1

— US11058680B2, “Combinations of opioid/TLR4 antagonists and acetaminophen for use in the treatment of emotional pain and insomnia” (Allodynic Threapeutics, LLC, priority 2016, dated 2021)
